Reference: patent US10266537B2, “3-acetylenyl-pyrazole-pyrimidine derivative, and preparation method therefor and uses thereof” (Si Chuan University, priority 2015, dated 2019)

How the values were obtained:
Assay in all cases: Kinase inhibition assay (KinaseProfiler, 33P-ATP)
Assay type in all cases: biochemical
[1] = molecular target: Flt4 (Homo sapiens (Human), UniProt P35916); conditions: Flt4(h), read-out: The percentage of the remaining active protein
[2] = molecular target: EphA3 (Homo sapiens (Human), UniProt P29320); conditions: EphA3(h), read-out: The percentage of the remaining active protein
[3] = molecular target: Tie2(Y897S)(h) (Homo sapiens (Human), UniProt Q02763, Y897S); conditions: read-out: The percentage of the remaining active protein
[4] = molecular target: CK2(h) (Homo sapiens (Human), UniProt P68400); conditions: read-out: The percentage of the remaining active protein
[5] = molecular target: MLK1(h) (Homo sapiens (Human), UniProt P80192); conditions: read-out: The percentage of the remaining active protein
[6] = molecular target: Blk(m) (Mus musculus (Mouse), UniProt P16277); conditions: read-out: The percentage of the remaining active protein
[7] = molecular target: MARK1(h) (Homo sapiens (Human), UniProt Q9P0L2); conditions: read-out: The percentage of the remaining active protein
[8] = molecular target: Syk(h) (Homo sapiens (Human), UniProt P43405); conditions: read-out: The percentage of the remaining active protein
[9] = molecular target: FGFR4(h) (Homo sapiens (Human), UniProt P22455); conditions: read-out: The percentage of the remaining active protein
[10] = molecular target: BTK(R28H)(h) (Homo sapiens (Human), UniProt Q06187, R28H); conditions: read-out: The percentage of the remaining active protein
[11] = molecular target: FGFR2 (Homo sapiens (Human), UniProt P21802)
[12] = molecular target: HIPK2(h) (Homo sapiens (Human), UniProt Q9H2X6); conditions: read-out: The percentage of the remaining active protein
[13] = molecular target: Ret (Homo sapiens (Human), UniProt P07949)
[14] = molecular target: PI3 Kinase (p110d/p85a)(m) (Mus musculus (Mouse), UniProt O35904); conditions: read-out: The percentage of the remaining active protein
[15] = molecular target: PEK(h) (Homo sapiens (Human), UniProt Q9NZJ5); conditions: read-out: The percentage of the remaining active protein
[16] = molecular target: PI3 Kinase (p110a(E542K)/p85a)(m) (Mus musculus (Mouse), UniProt P42337, E542K); conditions: read-out: The percentage of the remaining active protein
[17] = molecular target: MuSK(h) (Homo sapiens (Human), UniProt O15146); conditions: read-out: The percentage of the remaining active protein
[18] = molecular target: PI3 Kinase (p110b/p85b)(m) (Mus musculus (Mouse), UniProt Q8BTI9); conditions: read-out: The percentage of the remaining active protein
[19] = molecular target: Mnk2(h) (Homo sapiens (Human), UniProt Q9HBH9); conditions: read-out: The percentage of the remaining active protein
[20] = molecular target: PI3 Kinase (p110a(H1047R)/p85a)(h) (Homo sapiens (Human), UniProt P42336, H1047R); conditions: read-out: The percentage of the remaining active protein
[21] = molecular target: MAPKAP-K3(h) (Homo sapiens (Human), UniProt Q16644); conditions: read-out: The percentage of the remaining active protein
[22] = molecular target: Rsk3(h) (Homo sapiens (Human), UniProt Q15349); conditions: read-out: The percentage of the remaining active protein
[23] = molecular target: ALK4(h) (Homo sapiens (Human), UniProt P36896); conditions: read-out: The percentage of the remaining active protein
[24] = molecular target: Aurora-A(h) (Homo sapiens (Human), UniProt O14965); conditions: read-out: The percentage of the remaining active protein
[25] = molecular target: PIP4K2a(h) (Homo sapiens (Human), UniProt P48426); conditions: read-out: The percentage of the remaining active protein
[26] = molecular target: CDK2/cyclinA(h) (Homo sapiens (Human), UniProt P24941); conditions: read-out: The percentage of the remaining active protein
[27] = molecular target: Lck (Homo sapiens (Human), UniProt P06239)
[28] = molecular target: IKKε(h) (Homo sapiens (Human), UniProt Q14164); conditions: read-out: The percentage of the remaining active protein
[29] = molecular target: MST2(h) (Homo sapiens (Human), UniProt Q13188); conditions: read-out: The percentage of the remaining active protein
[30] = molecular target: PKCγ(h) (Homo sapiens (Human), UniProt P05129); conditions: read-out: The percentage of the remaining active protein
[31] = molecular target: DYRK1B(h) (Homo sapiens (Human), UniProt Q9Y463); conditions: read-out: The percentage of the remaining active protein
[32] = molecular target: EphB3 (Homo sapiens (Human), UniProt P54753); conditions: EphB3(h), read-out: The percentage of the remaining active protein
[33] = molecular target: Abl(T315I) (Homo sapiens (Human), UniProt P00519, T315I); conditions: Abl(T315I)(h); 10 μM; read-out: The percentage of the remaining active protein
[34] = molecular target: GSK3α(h) (Homo sapiens (Human), UniProt P49840); conditions: read-out: The percentage of the remaining active protein
Chain of GSK3α(h) (P49840 whole entry): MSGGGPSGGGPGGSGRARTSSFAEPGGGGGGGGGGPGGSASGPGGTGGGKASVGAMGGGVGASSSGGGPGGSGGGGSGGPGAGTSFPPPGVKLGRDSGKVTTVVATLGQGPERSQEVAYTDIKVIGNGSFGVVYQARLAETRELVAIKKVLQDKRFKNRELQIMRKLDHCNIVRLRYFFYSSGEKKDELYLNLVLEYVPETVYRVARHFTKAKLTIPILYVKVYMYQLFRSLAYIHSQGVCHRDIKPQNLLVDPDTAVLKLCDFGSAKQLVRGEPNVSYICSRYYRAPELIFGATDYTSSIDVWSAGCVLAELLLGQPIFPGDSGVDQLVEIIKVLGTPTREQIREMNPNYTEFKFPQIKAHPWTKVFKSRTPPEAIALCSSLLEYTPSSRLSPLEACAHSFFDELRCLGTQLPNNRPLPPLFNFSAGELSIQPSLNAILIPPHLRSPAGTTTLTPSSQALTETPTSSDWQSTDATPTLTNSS

Chain of Lck (P06239 whole entry): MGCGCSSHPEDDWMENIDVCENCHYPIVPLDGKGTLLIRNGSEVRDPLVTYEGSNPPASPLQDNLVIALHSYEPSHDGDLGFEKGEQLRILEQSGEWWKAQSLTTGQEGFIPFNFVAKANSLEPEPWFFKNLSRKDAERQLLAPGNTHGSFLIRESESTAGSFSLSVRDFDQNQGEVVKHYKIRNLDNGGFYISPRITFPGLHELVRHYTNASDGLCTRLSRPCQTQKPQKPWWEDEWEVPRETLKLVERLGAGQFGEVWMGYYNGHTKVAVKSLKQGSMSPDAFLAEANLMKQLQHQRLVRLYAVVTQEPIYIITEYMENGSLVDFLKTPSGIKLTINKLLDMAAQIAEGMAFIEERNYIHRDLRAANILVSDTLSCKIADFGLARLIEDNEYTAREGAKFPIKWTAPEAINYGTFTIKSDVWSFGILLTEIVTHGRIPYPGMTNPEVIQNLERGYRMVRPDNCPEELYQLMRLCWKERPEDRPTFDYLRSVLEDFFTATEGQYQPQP
Chain of Ret (P07949 29-1114): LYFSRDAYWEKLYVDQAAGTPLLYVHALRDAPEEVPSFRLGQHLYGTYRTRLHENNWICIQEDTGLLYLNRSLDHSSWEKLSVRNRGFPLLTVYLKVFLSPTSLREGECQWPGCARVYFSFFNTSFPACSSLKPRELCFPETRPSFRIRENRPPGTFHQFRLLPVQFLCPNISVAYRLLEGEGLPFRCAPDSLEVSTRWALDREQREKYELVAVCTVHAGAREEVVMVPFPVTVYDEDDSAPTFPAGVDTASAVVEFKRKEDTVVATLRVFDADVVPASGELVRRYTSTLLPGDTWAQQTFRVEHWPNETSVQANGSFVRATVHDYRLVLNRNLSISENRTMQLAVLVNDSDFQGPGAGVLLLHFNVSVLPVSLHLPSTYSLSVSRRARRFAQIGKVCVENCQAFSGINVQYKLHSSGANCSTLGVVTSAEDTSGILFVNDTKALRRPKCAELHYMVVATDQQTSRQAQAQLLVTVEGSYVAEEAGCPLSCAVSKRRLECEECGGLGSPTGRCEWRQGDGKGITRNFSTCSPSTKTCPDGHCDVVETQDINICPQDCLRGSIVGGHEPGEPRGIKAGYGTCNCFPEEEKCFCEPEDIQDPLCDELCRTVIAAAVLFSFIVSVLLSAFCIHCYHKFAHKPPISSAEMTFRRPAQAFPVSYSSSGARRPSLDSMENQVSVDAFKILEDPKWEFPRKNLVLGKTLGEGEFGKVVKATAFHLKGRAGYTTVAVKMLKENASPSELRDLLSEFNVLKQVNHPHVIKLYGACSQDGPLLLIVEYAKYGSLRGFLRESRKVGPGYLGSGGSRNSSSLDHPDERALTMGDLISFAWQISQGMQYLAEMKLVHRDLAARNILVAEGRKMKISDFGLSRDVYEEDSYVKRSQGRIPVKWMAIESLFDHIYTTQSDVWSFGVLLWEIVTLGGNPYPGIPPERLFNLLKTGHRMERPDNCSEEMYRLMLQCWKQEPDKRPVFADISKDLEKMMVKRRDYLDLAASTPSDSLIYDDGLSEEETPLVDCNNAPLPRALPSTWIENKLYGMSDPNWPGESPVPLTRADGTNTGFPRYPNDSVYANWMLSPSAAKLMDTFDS
Chain of FGFR2 (P21802 22-821): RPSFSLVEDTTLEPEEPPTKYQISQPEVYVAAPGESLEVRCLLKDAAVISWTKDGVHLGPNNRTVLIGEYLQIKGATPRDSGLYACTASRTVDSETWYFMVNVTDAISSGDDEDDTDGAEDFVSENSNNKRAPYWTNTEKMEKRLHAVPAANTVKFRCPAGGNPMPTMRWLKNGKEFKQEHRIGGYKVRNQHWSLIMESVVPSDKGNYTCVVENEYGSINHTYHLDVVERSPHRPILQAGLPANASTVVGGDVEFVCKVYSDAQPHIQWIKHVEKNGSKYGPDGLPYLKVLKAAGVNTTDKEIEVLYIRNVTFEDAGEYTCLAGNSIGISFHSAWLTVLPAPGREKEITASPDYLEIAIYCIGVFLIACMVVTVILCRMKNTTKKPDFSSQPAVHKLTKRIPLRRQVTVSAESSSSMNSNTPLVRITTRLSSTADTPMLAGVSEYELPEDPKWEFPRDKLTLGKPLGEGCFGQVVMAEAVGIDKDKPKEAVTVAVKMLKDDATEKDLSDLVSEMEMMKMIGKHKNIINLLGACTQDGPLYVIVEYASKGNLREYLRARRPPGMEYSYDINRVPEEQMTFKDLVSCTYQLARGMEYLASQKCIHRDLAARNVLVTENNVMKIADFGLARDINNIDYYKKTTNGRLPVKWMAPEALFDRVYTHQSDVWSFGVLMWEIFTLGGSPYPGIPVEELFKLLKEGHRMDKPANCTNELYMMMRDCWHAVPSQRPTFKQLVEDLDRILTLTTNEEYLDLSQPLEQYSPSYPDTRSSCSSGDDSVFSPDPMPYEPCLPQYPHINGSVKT
Chain of PI3 Kinase (p110b/p85b)(m) (Q8BTI9 whole entry): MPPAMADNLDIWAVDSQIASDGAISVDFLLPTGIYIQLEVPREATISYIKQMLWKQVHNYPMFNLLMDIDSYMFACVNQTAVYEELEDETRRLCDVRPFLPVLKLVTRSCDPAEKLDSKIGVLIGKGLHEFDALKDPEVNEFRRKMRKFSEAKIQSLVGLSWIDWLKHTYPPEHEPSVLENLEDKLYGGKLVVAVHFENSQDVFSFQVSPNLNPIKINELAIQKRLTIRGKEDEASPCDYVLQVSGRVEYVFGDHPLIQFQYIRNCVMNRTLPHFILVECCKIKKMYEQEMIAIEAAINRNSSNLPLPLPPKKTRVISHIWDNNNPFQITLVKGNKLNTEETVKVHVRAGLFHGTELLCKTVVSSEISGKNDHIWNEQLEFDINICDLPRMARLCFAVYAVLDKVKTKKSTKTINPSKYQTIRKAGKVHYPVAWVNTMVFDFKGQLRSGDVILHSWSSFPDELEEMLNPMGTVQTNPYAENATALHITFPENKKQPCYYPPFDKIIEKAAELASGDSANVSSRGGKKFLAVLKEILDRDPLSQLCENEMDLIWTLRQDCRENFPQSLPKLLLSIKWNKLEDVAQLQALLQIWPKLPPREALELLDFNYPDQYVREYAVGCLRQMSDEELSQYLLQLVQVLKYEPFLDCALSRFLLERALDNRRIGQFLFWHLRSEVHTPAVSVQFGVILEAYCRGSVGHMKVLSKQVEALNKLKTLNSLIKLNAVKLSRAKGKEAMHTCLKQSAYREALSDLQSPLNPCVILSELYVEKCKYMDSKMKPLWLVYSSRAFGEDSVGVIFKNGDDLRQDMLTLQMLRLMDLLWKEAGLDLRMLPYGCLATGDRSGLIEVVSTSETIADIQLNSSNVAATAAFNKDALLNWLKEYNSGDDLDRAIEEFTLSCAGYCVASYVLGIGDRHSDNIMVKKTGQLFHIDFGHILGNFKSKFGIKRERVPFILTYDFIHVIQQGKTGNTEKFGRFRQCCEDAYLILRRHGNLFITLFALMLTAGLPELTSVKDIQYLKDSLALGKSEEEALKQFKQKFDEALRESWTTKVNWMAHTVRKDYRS
Chain of PI3 Kinase (p110b/p85b)(m) (O08908 whole entry partner): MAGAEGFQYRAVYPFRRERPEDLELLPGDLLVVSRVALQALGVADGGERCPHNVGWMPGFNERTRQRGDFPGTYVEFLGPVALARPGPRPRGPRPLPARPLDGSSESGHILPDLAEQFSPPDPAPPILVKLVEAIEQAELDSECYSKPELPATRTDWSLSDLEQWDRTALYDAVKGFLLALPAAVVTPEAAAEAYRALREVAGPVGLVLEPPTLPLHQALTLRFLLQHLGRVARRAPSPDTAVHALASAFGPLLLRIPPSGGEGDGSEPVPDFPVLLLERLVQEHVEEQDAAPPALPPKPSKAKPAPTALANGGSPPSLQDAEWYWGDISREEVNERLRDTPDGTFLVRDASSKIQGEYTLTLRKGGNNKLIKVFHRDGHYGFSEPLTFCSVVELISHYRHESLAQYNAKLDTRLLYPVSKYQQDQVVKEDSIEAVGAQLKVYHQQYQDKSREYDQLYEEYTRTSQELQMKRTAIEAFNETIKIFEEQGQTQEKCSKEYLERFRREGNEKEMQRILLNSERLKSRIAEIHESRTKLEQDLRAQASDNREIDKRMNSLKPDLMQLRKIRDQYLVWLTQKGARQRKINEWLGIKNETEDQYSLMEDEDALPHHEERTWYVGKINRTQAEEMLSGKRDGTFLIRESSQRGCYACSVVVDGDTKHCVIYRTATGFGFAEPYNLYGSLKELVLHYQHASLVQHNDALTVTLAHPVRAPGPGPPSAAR
Chain of MAPKAP-K3(h) (Q16644 whole entry): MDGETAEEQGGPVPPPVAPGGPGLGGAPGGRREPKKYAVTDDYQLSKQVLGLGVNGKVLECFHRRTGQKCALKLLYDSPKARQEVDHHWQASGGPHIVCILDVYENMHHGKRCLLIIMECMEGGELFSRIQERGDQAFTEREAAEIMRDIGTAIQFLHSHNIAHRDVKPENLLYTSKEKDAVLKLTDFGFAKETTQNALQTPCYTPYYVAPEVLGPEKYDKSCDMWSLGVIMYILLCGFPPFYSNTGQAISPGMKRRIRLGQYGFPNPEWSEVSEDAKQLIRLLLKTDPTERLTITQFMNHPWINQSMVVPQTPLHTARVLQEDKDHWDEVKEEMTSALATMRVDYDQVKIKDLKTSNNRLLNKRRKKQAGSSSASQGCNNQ

remaining activity at 10 µM [1]: 1%
remaining activity at 10 µM [2]: 3%
remaining activity at 10 µM [3]: 0%
remaining activity at 10 µM [4]: 105%
remaining activity at 10 µM [5]: 7%
remaining activity at 10 µM [6]: 1%
remaining activity at 10 µM [7]: 94%
remaining activity at 10 µM [8]: 95%
remaining activity at 10 µM [9]: 33%
remaining activity at 10 µM [10]: 71%
remaining activity at 10 µM ([11]; FGFR2(h), 10 μM, read-out: The percentage of the remaining active protein): 0%
IC50 ([11]; FGFR2, ATP at Km): 40 nM
remaining activity at 10 µM [12]: 99%
remaining activity at 10 µM ([13]; Ret(h), 10 μM, read-out: The percentage of the remaining active protein): 2%
IC50 ([13]; Ret, ATP at Km): 4 nM
remaining activity at 10 µM [14]: 78%
remaining activity at 10 µM [15]: 39%
remaining activity at 10 µM [16]: 92%
remaining activity at 10 µM [17]: 70%
remaining activity at 10 µM [18]: 93%
remaining activity at 10 µM [19]: 96%
remaining activity at 10 µM [20]: 89%
remaining activity at 10 µM [21]: 96%
remaining activity at 10 µM [22]: 38%
remaining activity at 10 µM [23]: 79%
remaining activity at 10 µM [24]: 64%
remaining activity at 10 µM [25]: 100%
remaining activity at 10 µM [26]: 100%
remaining activity at 10 µM ([27]; Lck(h), 10 μM, read-out: The percentage of the remaining active protein): 0%
IC50 ([27]; Lck, ATP at Km): 14 nM
remaining activity at 10 µM [28]: 94%
remaining activity at 10 µM [29]: 63%
remaining activity at 10 µM [30]: 90%
remaining activity at 10 µM [31]: 92%
remaining activity at 10 µM [32]: 5%
remaining activity at 10 µM [33]: 1%
remaining activity at 10 µM [34]: 79%
Compound: Cc1ccc(NC(=O)c2ccc(C)c(C(F)(F)F)c2)cc1C#Cc1nn([C@H]2CC[C@H](O)CC2)c2ncnc(N)c12 [Compound 93]
